Entries after “also recorded” stand apart in the source; their conditions may differ.
What was measured:
Assay type in all cases: cell-based, human
[1] = system: p38 MAPK, JNK/SAPK, AKT and ERK1/2; assay: Western blot of MAPK and AKT activation in HNDFs; details: ANM 10 μM or NAC 100 μM + HG 30 mM
Method: Next, the possible upstream regulators of p53 activation are examined. Previous studies have shown that p38 MAPK mediated p53 activation in response to intracellular ROS generation. In FIG. 4F, this effect is further extended to its upstream regulator p38 MAPK.
(§1) Cells are lysed by either RIPA lysis buffer or nuclear and cytoplasmic extraction reagents (Thermo Fisher Scientific). Protein concentrations are determined by Bio-Rad protein assay reagent (Bio-Rad Laboratories, Hercules, Calif.). Equal amounts of protein samples (60 μg) are separated by 7-12% SDS-PAGE and the separated proteins are transferred onto polyvinylidene […] (PVDC) membrane overnight. The transferred protein membranes are blocked with 5% non-fat dried milk for 30 min, followed by incubation with specific primary antibodies overnight, and either horseradish peroxidase-conjugated goat anti-rabbit or anti-mouse antibodies for 2 h. The blots are detected using VL Chemi-Smart 3000 (Viogene Biotek, Sunnyvale, Calif.) with the enhanced chemiluminescence (ECL) western blotting reagent (Millipore, Billerica, Mass.).

p53 and FoxO1 [2] = assay: Western blot of p53 and FoxO1 acetylation in HUVECs; details: ANM 10 μM + HG 30 mM
Method: Please refer to FIG. 9A˜FIG. 9H, which are views showing HG-induced senescence prevented by ANM in human umbilical vein endothelial cells (HUVECs). As shown in the figures, to further delineate the protective effects of ANM on another cell system, experiments are designed to investigate the protective effect of ANM on HUVECs incubated in media containing either NG or HG alone or with ANM for 48 h. Cell viability is measured by MTT assay. […] Cell viability is determined by MTT assay. Percentage of viable cells are normalized with control cells (NG). […] In addition, in FIG. 9B, cellular senescence is determined by SA-β-gal activity assay. […] In addition, in FIG. 9C and FIG. 9D, total cell lysate is extracted and senescence-associated marker proteins including p16^INK4A, p21^CIP1 total and acetylated p53 and FoxO1 are measured by western blot analysis.
Cells are lysed by either RIPA lysis buffer or nuclear and cytoplasmic extraction reagents (Thermo Fisher Scientific). Protein concentrations are determined by Bio-Rad protein assay reagent (Bio-Rad Laboratories, Hercules, Calif.). […] The blots are detected using VL Chemi-Smart 3000 (Viogene Biotek, Sunnyvale, Calif.) with the enhanced chemiluminescence (ECL) western blotting reagent (Millipore, Billerica, Mass.).

HNDFs [3] = assay: Intracellular ROS by flow cytometry (DCFH-DA) in HNDFs; details: 24 h; for intracellular ROS generation: ANM 10 μM or NAC 100 μM + HG 30 mM, HG alone 426.2%; for ROS generation, compound alone: ANM 10 μM or NAC 100 μM without HG
Method: Next, please refer to FIG. 4A˜FIG. 4H, which are views showing HG-induced senescence inhibited by ANM in HNDFs. As shown in the figures, it is examined whether ANM inhibits HG-induced ROS generation. In FIG. 4A, HNDFs are incubated with ANM (10 μM) or NAC (100 μM) either in the presence or absence of HG (30 mM) for 24 h. The intracellular ROS level is determined by flow cytometry using DCH-DA flurogenic probe. […] As is shown, HNDFs are co-incubated with HG and ANM or NAC for 24 h, and intracellular ROS levels are measured by flow cytometry.
Moreover, in FIG. 6B, HNDFs are transfected with specific siRNA against Nrf2 or control siRNA. […] Intracellular ROS is measured by DCFH-DA assay.
Intracellular ROS accumulation is determined using the dye DCFH2-DA following a procedure described earlier. Briefly, HNDFs (1×10^5 cells/well) are seeded in 6-well plates and incubated with HG in the presence or absence of test samples for 24 h. At the end of the incubation, the culture supernatant is removed and cells are washed twice with PBS. DCFH2-DA […] is mixed with 500 μL MEM and added to the culture plate. After incubation for 30 minutes, cells are collected by trypsin and the fluorescence shift is quantified using a flow cytometer (Beckman Coulter). Data are acquired and analyzed using CXP software (Beckman Coulter).

p53 and FoxO1 [4] = assay: Western blot of p53 and FoxO1 acetylation/phosphorylation in HNDFs; details: for HG-induced p53 phosphorylation at Ser15: ANM 10 μM or NAC 100 μM + HG 30 mM; for total p53 and FoxO1 levels: HNDFs, with or without HG; for protection against HG-induced decrease in FoxO1 phosphorylation: co-treatment with HG 30 mM
Method: It is well known that p16^INK4A and p21^CIP1 are regulated by transcription factors p53 and FoxO1 followed by acetylation. […] In addition, p53 phosphorylation at Ser15 by their upstream kinases promotes transcriptional activation in response to DNA damage.
To further examine the phenomenon that HG-induced p53 activation is relayed by the p38 MAPK or JNK/SAPK cascade, cells are incubated with corresponding pharmacological inhibitors, SB203580, SP600125, PD98059 and LY294002 for p38MAPK, JNK/SAPK, ERK1/2 and P13K/AKT, respectively in the presence of HG.
The protein expression levels of SIRT-1, SIRT-6, p21^CIP1, SMP30, p53, FoxO and acetylation of p53 and FoxO1 are determined by western blot analysis.
as §1

HNDFs [5] = assay: Trypan blue exclusion cell proliferation assay in HNDFs; details: 72 h
Method: To further clarify the effect of antcins, HG-induced reduction in cell proliferation is determined. In FIG. 2D, to determine the effect of antcins on cell proliferation efficacy, 5×10^4 cells/well of HNDFs are incubated with antcins in 6-well plates in the presence of HG (30 mM) for 72 h. Number of viable cells is quantified by the tryphan blue exclusion method. Results are expressed as mean±S.E.M of three indipendent expriments. Statistical significance is set at ^ϕP<0.05 as compared to NG vs. HG and *P<0.05 as compared to HG vs. samples. […] Therefore, the molecular mechanism underlying the protective effect of ANM is explored next.
Furthermore, in FIG. 3C, to determine the effect of ANM or NAC on cell proliferation, 5×10^4 cells/well of HNDFs are incubated in a 6-well plate with ANM (10 μM) or NAC (100 μM) in the presence of HG (30 mM) for 72 h. Number of viable cells is quantified by the tryphan blue exclusion method. Results expressed as mean±S.E.M of three independent experiments. Statistical significance is set at ^ϕP<0.05 as compared to NG vs. HG and *P<0.05 as compared to HG vs. samples.
Cell proliferation is evaluated using trypan blue exclusion assay as described previously with minor modification. Cells are plated into 6-well plates at a density of 5×10^4 cells/well. After incubation overnight, cells are treated with test samples in the presence or absence of HG for 24-72 h. Cells exposed to 0.2% Trypan blue are then counted in a hemocytometer, and cells stained with Trypan blue are excluded. Percentage of viable cells is calculated based on the ratio of viable cells to total cell population in each well. The proliferation rate is calculated based on the number of viable cells in HG or sample-treated groups versus the NG-treated group.

Structure (SMILES)	HG-induced JNK/SAPK activation [1]	HG-induced activation of p38 MAPK [1]	HG-mediated decrease in AKT and ERK1/2 activity (phosphorylation) [1]	HG-induced p53 and FoxO1 acetylation in HUVECs (p53 and FoxO1 [2])	HG-induced ROS generation, scrambled siRNA cells (HNDFs [3]; ANM 10 μM + HG)	ROS generation, siNrf2 transfected cells (HNDFs [3]; ANM 10 μM + HG)	intracellular ROS generation (HNDFs [3]) [%]	ROS generation, compound alone (HNDFs [3])	HG-induced p53 and FoxO1 acetylation (p53 and FoxO1 [4]; ANM 10 μM + HG 30 mM, 72 h)	HG-induced p21^CIP1 expression and acetylation in p53 and FoxO1, control siRNA cells (p53 and FoxO1 [4]; ANM 10 μM + HG, 72 h)	p21^CIP1 expression, p53/FoxO1 deacetylation, SMP30 upregulation in SIRT-1 silenced cells (p53 and FoxO1 [4]; ANM 10 μM + HG, 72 h, siSIRT-1)	HG-induced p53 phosphorylation at Ser15 (p53 and FoxO1 [4])	total p53 and FoxO1 levels (p53 and FoxO1 [4])	protection against HG-induced decrease in FoxO1 phosphorylation (p53 and FoxO1 [4])	HG-induced reduction in cell number, control siRNA cells (HNDFs [5]; ANM 10 μM + HG)	protection of cell number, SIRT-1 siRNA transfected cells (HNDFs [5]; ANM 10 μM + HG)	HG-induced reduction in cell proliferation, Nrf2 knock-down cells (HNDFs [5]; ANM + HG)	cell proliferation, Nrf2 and SIRT-1 knock-down cells (HNDFs [5]; ANM + HG)	cell proliferation (number of viable cells) vs HG group (HNDFs [5]; antcins 10 μM + HG 30 mM, trypan blue exclusion)
C=C(CCC(C)C1CCC2C3=C(C(=O)C(O)C21C)C1(C)CCC(O)C(C)C1CC3)C(C)C(=O)O (stereo not drawn) [ANM, antcin M]	significantly prevents	significantly prevents	significantly rescues; also recorded: significantly blocked	significantly blocks	significantly inhibits	increased ROS generation	200.8	does not significantly increase	barely observed	significantly attenuated	fails to inhibit	significantly blocked	neither ANM nor NAC affected	fails to protect	significantly blocked	partial protection	partially inhibited	fails to rescue	two-fold increase; also recorded: increased cell proliferation
CC(=O)N[C@@H](CS)C(=O)O [NAC, N-acetylcysteine, reference compound]	significantly prevents	significantly prevents	significantly rescues; also recorded: significantly blocked	–	–	–	176.58	does not significantly increase	–	–	–	significantly blocked	neither ANM nor NAC affected	fails to protect	–	–	–	–	–

Source: patent publication US20180318199A1, “Pharmaceutical Composition Having Anti-Aging Properties against High-Glucose” (TAIWAN LEADER BIOTECH CORP., priority 2017, published 2018)
